According to ChEMBL document CHEMBL5634077, “Recent advances in 1,2,3- and 1,2,4-triazole hybrids as antimicrobials and their SAR: A critical review” (2023):
Converted amounts (≈) assume the structure as drawn.

Experiments:
Format in all cases: functional
Pseudomonas aeruginosa = test: Antibacterial activity against Pseudomonas aeruginosa MTCC 1034 assessed as reduction in bacterial growth
Bacillus subtilis [1] = test: Antibacterial activity against Bacillus subtilis MTCC 441 assessed as reduction in bacterial growth
Candida albicans [2] = test: Antifungal activity against Candida albicans assessed as fungal growth inhibition by CLSI based method
Cryptococcus neoformans [3] = test: Antifungal activity against Cryptococcus neoformans assessed as fungal growth inhibition by CLSI based method
Candida albicans [4] = test: Antifungal activity against Candida albicans ATCC 90028 assessed as growth inhibition incubated for 24 hrs
Staphylococcus aureus [5] = test: Antibacterial activity against Staphylococcus aureus assessed as diameter of inhibition zone
Staphylococcus aureus [6] = test: Antibacterial activity against methicillin resistant Staphylococcus aureus incubated for 20 hrs by broth microdilution method
Candida albicans [7] = test: Antifungal activity against Candida albicans assessed as inhibition of fungal growth
Aspergillus flavus [8] = test: Antifungal activity against Aspergillus flavus assessed as inhibition of fungal growth
Rhizopus = test: Antifungal activity against Rhizopus assessed as inhibition of fungal growth
Staphylococcus aureus [9] = test: Antibacterial activity against Staphylococcus aureus assessed as diameter of inhibition zone incubated for 24 hrs by well diffusion assay
Bacillus subtilis [10] = test: Antibacterial activity against Bacillus subtilis RCMB 010069 assessed as diameter of inhibition zone incubated for 24 hrs by well diffusion assay
Proteus vulgaris = test: Antibacterial activity against Proteus vulgaris RCMB 004 assessed as diameter of inhibition zone incubated for 24 hrs by well diffusion assay
Escherichia coli = test: Antibacterial activity against Escherichia coli RCMB 010052 assessed as diameter of inhibition zone incubated for 24 hrs by well diffusion assay
Aspergillus flavus [11] = test: Antifungal activity against Aspergillus flavus assessed as diameter of inhibition zone incubated for 24 hrs by well diffusion assay
Geotrichum candidum = test: Antifungal activity against Geotrichum candidum RCMB 052006 assessed as diameter of inhibition zone incubated for 24 hrs by well diffusion assay
Candida albicans [12] = test: Antifungal activity against Candida albicans Y0109 assessed as reduction in fungal growth incubated for 24 hrs by NCCLS based assay
Candida albicans [13] = test: Antifungal activity against Candida albicans SC5314 assessed as reduction in fungal growth incubated for 24 hrs by NCCLS based assay
Nakaseomyces glabratus = test: Antifungal activity against Candida glabrata 537 assessed as reduction in fungal growth incubated for 72 hrs by NCCLS based assay
Cryptococcus neoformans [14] = test: Antifungal activity against Cryptococcus neoformans 32609 assessed as reduction in fungal growth incubated for 72 hrs by NCCLS based assay
Aspergillus fumigatus = test: Antifungal activity against Aspergillus fumigatus 7544 assessed as reduction in fungal growth incubated for 5 to 7 days by NCCLS based assay; settings: time 5-7 day
Trichophyton rubrum = test: Antifungal activity against Trichophyton rubrum assessed as reduction in fungal growth incubated for 5 to 7 days by NCCLS based assay; settings: time 5-7 day
Nannizzia gypsea = test: Antifungal activity against Microsporum gypseum assessed as reduction in fungal growth incubated for 5 to 7 days by NCCLS based assay; settings: time 5-7 day

C=CCCC1CC(=O)N1Cc1cn(-c2cccc([N+](=O)[O-])c2)nn1 (stereo unspecified)
MIC (Pseudomonas aeruginosa): 1.25 µg/mL (≈ 3.82 µM)
MIC (Bacillus subtilis [1]): 1.25 µg/mL (≈ 3.82 µM)

O=C(c1ccc(F)cc1)C(C(c1ccccc1)c1ccccc1)n1cncn1 (stereo unspecified)
MIC (Candida albicans [2]): 0.5 µg/mL (≈ 1.35 µM)
MIC (Cryptococcus neoformans [3]): 0.5 µg/mL (≈ 1.35 µM)

CCCCNC(=O)c1nnn(-c2ccc(C)cc2)c1CCC
growth inhibition (GI) (Candida albicans [4]): 21.2%

CC(c1cn(-c2cnc(-c3ccccc3)c(-c3ccccc3)n2)nn1)N1C(=O)C(=O)c2ccccc21 (stereo unspecified)
diameter of the inhibition zone (DIZ) (Staphylococcus aureus [5]): 6 mm

CCCNC(=O)c1nnn(-c2ccc(Br)cc2)c1C
growth inhibition (GI) (Candida albicans [4]): 13.2%

CCCNC(=O)c1nnn(-c2ccc(CC)cc2)c1C
growth inhibition (GI) (Candida albicans [4]): 14.1%

COc1cc(/C=C/c2ccc(OCc3cn(CCC(=O)O)nn3)cc2)cc(OC)c1
MIC (Staphylococcus aureus [6]): 625 µg/mL (≈ 1530 µM)

COc1cc(/C=C/c2ccc(OCc3cn(-c4ccc(C(=O)O)cc4)nn3)cc2)cc(OC)c1
MIC (Staphylococcus aureus [6]): 1.2 µg/mL (≈ 2.62 µM)

C=CCCC1CC(=O)N1Cc1cn(-c2ccc([N+](=O)[O-])cc2)nn1 (stereo unspecified)
MIC (Pseudomonas aeruginosa): 1.25 µg/mL (≈ 3.82 µM)
MIC (Bacillus subtilis [1]): 1.25 µg/mL (≈ 3.82 µM)

COc1cc([N+](=O)[O-])c(OC)cc1-n1cc(C(C)N2C(=O)C(=O)c3ccccc32)nn1 (stereo unspecified)
diameter of the inhibition zone (DIZ) (Staphylococcus aureus [5]): 9 mm

C[C@@H]1[C@H](O)[C@@H](C)/C=C/C=C/C=C/C=C/C=C/C=C/C=C/[C@H](O[C@@H]2O[C@H](C)[C@@H](O)[C@H](N)[C@@H]2O)C[C@@H]2O[C@](O)(C[C@@H](O)C[C@@H](O)[C@H](O)CC[C@@H](O)C[C@@H](O)CC(=O)O[C@H]1C)C[C@H](O)[C@H]2C(=O)O [AMPHOTERICIN B]
MIC (Candida albicans [7]): 8 µg/mL (≈ 8.66 µM)
MIC (Aspergillus flavus [8]): 8 µg/mL (≈ 8.66 µM)
MIC (Rhizopus): 16 µg/mL (≈ 17.3 µM)

O=C(c1ccc(F)cc1)C(Cc1ccccc1)n1cncn1 (stereo unspecified)
MIC (Candida albicans [2]): 0.5 µg/mL (≈ 1.69 µM)
MIC (Cryptococcus neoformans [3]): 0.5 µg/mL (≈ 1.69 µM)

Cc1c(-c2cc(-c3c[nH]c4ccccc34)nc(S)n2)nnn1-c1ccc(-n2nnc(-c3cc(-c4c[nH]c5ccccc45)nc(S)n3)c2C)cc1
diameter of the inhibition zone (DIZ) (Staphylococcus aureus [9]): 20.6 mm
diameter of the inhibition zone (DIZ) (Bacillus subtilis [10]): 37.8 mm
diameter of the inhibition zone (DIZ) (Proteus vulgaris): 22.2 mm
diameter of the inhibition zone (DIZ) (Escherichia coli): 30.9 mm
diameter of the inhibition zone (DIZ) (Aspergillus flavus [11]): 19.1 mm
diameter of the inhibition zone (DIZ) (Geotrichum candidum): 21.1 mm

[N-]=[N+]=Nc1ccc(-n2cc(Cn3c(=O)sc4cc(Br)ccc43)nn2)c(Cl)c1
growth inhibition (GI) (Candida albicans [4]): 63.7%

C[C@@H](OCc1cc(-c2c(F)cc(F)cc2F)no1)[C@](O)(Cn1cncn1)c1ccc(F)cc1F
MIC80 (Candida albicans [12]): 0.062 µg/mL (≈ 0.129 µM)
MIC80 (Candida albicans [13]): 0.125 µg/mL (≈ 0.26 µM)
MIC80 (Nakaseomyces glabratus): 0.125 µg/mL (≈ 0.26 µM)
MIC80 (Cryptococcus neoformans [14]): 1 µg/mL (≈ 2.08 µM)
MIC80 (Aspergillus fumigatus): 4 µg/mL (≈ 8.33 µM)
MIC80 (Trichophyton rubrum): 2 µg/mL (≈ 4.16 µM)
MIC80 (Nannizzia gypsea): 1 µg/mL (≈ 2.08 µM)

COc1cc(/C=C/c2ccc(OCc3cn(CCCCC(=O)O)nn3)cc2)cc(OC)c1
MIC (Staphylococcus aureus [6]): 78.1 µg/mL (≈ 179 µM)

COc1cc(/C=C/c2ccc(OCc3cn(CCCCCC(=O)O)nn3)cc2)cc(OC)c1
MIC (Staphylococcus aureus [6]): 78.1 µg/mL (≈ 173 µM)

C[C@@H](OCc1cc(-c2ccc(F)cc2)no1)[C@](O)(Cn1cncn1)c1ccc(F)cc1F
MIC80 (Candida albicans [12]): 0.031 µg/mL (≈ 0.0698 µM)
MIC80 (Candida albicans [13]): 0.031 µg/mL (≈ 0.0698 µM)
MIC80 (Nakaseomyces glabratus): 0.125 µg/mL (≈ 0.281 µM)
MIC80 (Cryptococcus neoformans [14]): 0.5 µg/mL (≈ 1.13 µM)
MIC80 (Aspergillus fumigatus): 4 µg/mL (≈ 9 µM)
MIC80 (Trichophyton rubrum): 1 µg/mL (≈ 2.25 µM)
MIC80 (Nannizzia gypsea): 0.5 µg/mL (≈ 1.13 µM)

Cc1c(-c2cc(-c3ccccn3)nc(S)n2)nnn1-c1ccc(-n2nnc(-c3cc(-c4ccccn4)nc(S)n3)c2C)cc1
diameter of the inhibition zone (DIZ) (Staphylococcus aureus [9]): 23.3 mm
diameter of the inhibition zone (DIZ) (Bacillus subtilis [10]): 36.2 mm
diameter of the inhibition zone (DIZ) (Proteus vulgaris): 23.3 mm
diameter of the inhibition zone (DIZ) (Escherichia coli): 35.2 mm
diameter of the inhibition zone (DIZ) (Aspergillus flavus [11]): 24.02 mm
diameter of the inhibition zone (DIZ) (Geotrichum candidum): 26.3 mm

C=CCCC1CC(=O)N1Cc1cn(-c2ccc(OC)cc2)nn1 (stereo unspecified)
MIC (Pseudomonas aeruginosa): 1.25 µg/mL (≈ 4 µM)
MIC (Bacillus subtilis [1]): 1.25 µg/mL (≈ 4 µM)

Cc1ccccc1-c1cc(CO[C@H](C)[C@](O)(Cn2cncn2)c2ccc(F)cc2F)on1
MIC80 (Candida albicans [12]): 0.031 µg/mL (≈ 0.0704 µM)
MIC80 (Candida albicans [13]): 0.125 µg/mL (≈ 0.284 µM)
MIC80 (Nakaseomyces glabratus): 0.25 µg/mL (≈ 0.568 µM)
MIC80 (Cryptococcus neoformans [14]): 1 µg/mL (≈ 2.27 µM)
MIC80 (Aspergillus fumigatus): 4 µg/mL (≈ 9.08 µM)
MIC80 (Trichophyton rubrum): 4 µg/mL (≈ 9.08 µM)
MIC80 (Nannizzia gypsea): 2 µg/mL (≈ 4.54 µM)
